# ChEMBL document CHEMBL4196002, “Design, synthesis, mechanistic and histopathological studies of small-molecules of novel indole-2-carboxamides and pyrazino[1,2-a]indol-1(2H)-ones as potential anticancer agents effecting the reactive oxygen species production” (Eur J Med Chem, 2018)
# System: not listed separately
# Experiment: Cytotoxicity against human MCF10A cells assessed as cell viability at 50 uM after 96 hrs by MTT assay relative to control
# Format: cell-based, MCF-10A
# Details: read-out: Activity
row,SMILES,"viability at 96 h, 50 µM"
1,O=C(NC(CO)Cc1ccccc1)c1cc2ccccc2[nH]1 (configuration not stated),96%
2,CCc1c(C(=O)NC(CO)Cc2ccc(Cl)cc2)[nH]c2ccc(Cl)cc12 (configuration not stated),92%
3,CCc1c2cc(Cl)ccc2n2cc(Cc3ccccc3)[nH]c(=O)c12,89%
4,CCc1c2cc(C(F)(F)F)ccc2n2cc(Cc3ccccc3)[nH]c(=O)c12,79%

# System: not listed separately
# Experiment: Inhibition of ROS generation in human PMN at 0.78 ug/ml after 50 mins by luminol-based chemiluminescence assay relative to control
# Format: functional
# Details: not given
row,SMILES,inhibition at 0.78 µg/mL
1,O=C(NC(CO)Cc1ccccc1)c1cc2ccccc2[nH]1 (configuration not stated),9%
2,CCc1c(C(=O)NC(CO)Cc2ccc(Cl)cc2)[nH]c2ccc(Cl)cc12 (configuration not stated),22%
3,CCc1c2cc(Cl)ccc2n2cc(Cc3ccccc3)[nH]c(=O)c12,14%
4,CCc1c2cc(C(F)(F)F)ccc2n2cc(Cc3ccccc3)[nH]c(=O)c12,31%

# System: not listed separately
# Experiment: Inhibition of ROS generation in human PMN at 1.56 ug/ml after 50 mins by luminol-based chemiluminescence assay relative to control
# Format: functional
# Details: not given
row,SMILES,inhibition at 1.56 µg/mL
1,O=C(NC(CO)Cc1ccccc1)c1cc2ccccc2[nH]1 (configuration not stated),21%
2,CCc1c(C(=O)NC(CO)Cc2ccc(Cl)cc2)[nH]c2ccc(Cl)cc12 (configuration not stated),28%
3,CCc1c2cc(Cl)ccc2n2cc(Cc3ccccc3)[nH]c(=O)c12,27%
4,CCc1c2cc(C(F)(F)F)ccc2n2cc(Cc3ccccc3)[nH]c(=O)c12,42%

# System: PC-3
# Experiment: Antiproliferative activity human PC3 cells after 48 hrs by propidium iodide staining-based fluorescence assay
# Format: functional, cell-based
# Details: PC-3, 48 h
row,IC50,SMILES
1,16.5 µM,O=C(NC(CO)Cc1ccccc1)c1cc2ccccc2[nH]1 (configuration not stated)
2,17.8 µM,CCc1c(C(=O)NC(CO)Cc2ccc(Cl)cc2)[nH]c2ccc(Cl)cc12 (configuration not stated)
3,5.1 µM,CCc1c2cc(Cl)ccc2n2cc(Cc3ccccc3)[nH]c(=O)c12
4,1 µM,CCc1c2cc(C(F)(F)F)ccc2n2cc(Cc3ccccc3)[nH]c(=O)c12

# System: A549
# Experiment: Antiproliferative activity human A549 cells after 48 hrs by propidium iodide staining-based fluorescence assay
# Format: functional, cell-based
# Details: A549, 48 h
row,IC50,SMILES
1,15.4 µM,O=C(NC(CO)Cc1ccccc1)c1cc2ccccc2[nH]1 (configuration not stated)
2,29.5 µM,CCc1c(C(=O)NC(CO)Cc2ccc(Cl)cc2)[nH]c2ccc(Cl)cc12 (configuration not stated)
3,6 µM,CCc1c2cc(Cl)ccc2n2cc(Cc3ccccc3)[nH]c(=O)c12
4,1.4 µM,CCc1c2cc(C(F)(F)F)ccc2n2cc(Cc3ccccc3)[nH]c(=O)c12

# System: MCF7
# Experiment: Antiproliferative activity human MCF7 cells after 48 hrs by propidium iodide staining-based fluorescence assay
# Format: functional, cell-based
# Details: MCF7, 48 h
row,IC50,SMILES
1,16.4 µM,O=C(NC(CO)Cc1ccccc1)c1cc2ccccc2[nH]1 (configuration not stated)
2,35.4 µM,CCc1c(C(=O)NC(CO)Cc2ccc(Cl)cc2)[nH]c2ccc(Cl)cc12 (configuration not stated)
3,7.5 µM,CCc1c2cc(Cl)ccc2n2cc(Cc3ccccc3)[nH]c(=O)c12
4,0.9 µM,CCc1c2cc(C(F)(F)F)ccc2n2cc(Cc3ccccc3)[nH]c(=O)c12

# System: MIA PaCa-2
# Experiment: Antiproliferative activity human MIAPaCa2 cells after 48 hrs by propidium iodide staining-based fluorescence assay
# Format: functional, cell-based
# Details: MIA PaCa-2, 48 h
row,IC50,SMILES
1,18.6 µM,O=C(NC(CO)Cc1ccccc1)c1cc2ccccc2[nH]1 (configuration not stated)
2,36 µM,CCc1c(C(=O)NC(CO)Cc2ccc(Cl)cc2)[nH]c2ccc(Cl)cc12 (configuration not stated)
3,8.3 µM,CCc1c2cc(Cl)ccc2n2cc(Cc3ccccc3)[nH]c(=O)c12
4,1.1 µM,CCc1c2cc(C(F)(F)F)ccc2n2cc(Cc3ccccc3)[nH]c(=O)c12

# System: HT-29
# Experiment: Antiproliferative activity human HT-29 cells after 48 hrs by propidium iodide staining-based fluorescence assay
# Format: functional, cell-based
# Details: HT-29, 48 h
row,IC50,SMILES
1,16.9 µM,O=C(NC(CO)Cc1ccccc1)c1cc2ccccc2[nH]1 (configuration not stated)
2,34.7 µM,CCc1c(C(=O)NC(CO)Cc2ccc(Cl)cc2)[nH]c2ccc(Cl)cc12 (configuration not stated)
3,7.7 µM,CCc1c2cc(Cl)ccc2n2cc(Cc3ccccc3)[nH]c(=O)c12
4,0.9 µM,CCc1c2cc(C(F)(F)F)ccc2n2cc(Cc3ccccc3)[nH]c(=O)c12

# Biological target: Tubulin (Homo sapiens) (UniProt P68371+Q9H4B7+P0DPH7+P68366+Q13509+Q71U36+P04350+Q3ZCM7+P07437+P68363+Q9BQE3+Q6PEY2+Q13885+Q9BVA1+Q9BUF5)
# Experiment: Inhibition of tubulin (unknown origin) polymerization assessed as tubulin assembly rate by fluorescence assay
# Format: protein-complex assay
# Details: not given
row,Activity,SMILES
1,1920 a.u.,CCc1c2cc(C(F)(F)F)ccc2n2cc(Cc3ccccc3)[nH]c(=O)c12

# Biological target: Epidermal growth factor receptor (Homo sapiens, UniProt P00533)
# Sequence (P00533 whole entry, the tested form may be a part): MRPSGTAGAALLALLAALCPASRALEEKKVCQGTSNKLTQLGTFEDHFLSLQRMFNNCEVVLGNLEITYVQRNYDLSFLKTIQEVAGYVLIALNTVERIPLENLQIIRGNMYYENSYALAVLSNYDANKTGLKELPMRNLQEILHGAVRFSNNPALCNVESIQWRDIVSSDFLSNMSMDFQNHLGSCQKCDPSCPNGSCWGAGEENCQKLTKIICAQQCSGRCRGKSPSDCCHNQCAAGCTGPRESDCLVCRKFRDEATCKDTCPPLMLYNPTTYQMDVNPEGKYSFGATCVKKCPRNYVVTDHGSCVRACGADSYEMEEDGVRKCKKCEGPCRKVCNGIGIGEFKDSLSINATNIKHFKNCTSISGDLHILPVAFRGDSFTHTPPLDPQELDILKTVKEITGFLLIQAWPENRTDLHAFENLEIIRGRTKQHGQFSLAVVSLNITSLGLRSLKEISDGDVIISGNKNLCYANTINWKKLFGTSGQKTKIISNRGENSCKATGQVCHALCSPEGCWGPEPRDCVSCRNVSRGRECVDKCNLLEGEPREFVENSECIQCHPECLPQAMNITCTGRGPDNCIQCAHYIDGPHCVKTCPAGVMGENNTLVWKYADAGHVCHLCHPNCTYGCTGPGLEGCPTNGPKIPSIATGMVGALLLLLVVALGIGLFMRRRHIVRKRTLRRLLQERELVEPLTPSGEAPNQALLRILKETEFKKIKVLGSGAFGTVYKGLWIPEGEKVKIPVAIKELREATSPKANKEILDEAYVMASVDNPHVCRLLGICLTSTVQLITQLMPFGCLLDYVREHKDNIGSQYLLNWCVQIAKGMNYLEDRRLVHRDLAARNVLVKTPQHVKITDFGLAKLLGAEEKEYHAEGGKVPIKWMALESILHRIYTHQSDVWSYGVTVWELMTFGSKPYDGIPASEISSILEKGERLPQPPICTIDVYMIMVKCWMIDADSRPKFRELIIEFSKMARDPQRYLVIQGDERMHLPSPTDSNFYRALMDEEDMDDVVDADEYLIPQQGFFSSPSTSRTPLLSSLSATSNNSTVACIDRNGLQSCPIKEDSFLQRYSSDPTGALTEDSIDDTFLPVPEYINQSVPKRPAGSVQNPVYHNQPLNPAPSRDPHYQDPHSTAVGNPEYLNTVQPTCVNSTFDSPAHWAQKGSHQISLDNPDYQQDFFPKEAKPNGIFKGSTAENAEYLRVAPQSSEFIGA
# Experiment: Inhibition of His6-tagged EGFR (unknown origin) cytoplasmic domain expressed in baculovirus infected Sf9 insect cells after 10 mins followed by addition of ATP-MgCl2 and measured after 1 hr by time-resolved fluorometric analysis
# Details: not given
row,IC50,SMILES
1,3.9 µM,CCc1c2cc(C(F)(F)F)ccc2n2cc(Cc3ccccc3)[nH]c(=O)c12

# Biological target: Serine/threonine-protein kinase B-raf (Mus musculus, UniProt P28028, V600E)
# Sequence (P28028 whole entry, looked up, stated change not applied): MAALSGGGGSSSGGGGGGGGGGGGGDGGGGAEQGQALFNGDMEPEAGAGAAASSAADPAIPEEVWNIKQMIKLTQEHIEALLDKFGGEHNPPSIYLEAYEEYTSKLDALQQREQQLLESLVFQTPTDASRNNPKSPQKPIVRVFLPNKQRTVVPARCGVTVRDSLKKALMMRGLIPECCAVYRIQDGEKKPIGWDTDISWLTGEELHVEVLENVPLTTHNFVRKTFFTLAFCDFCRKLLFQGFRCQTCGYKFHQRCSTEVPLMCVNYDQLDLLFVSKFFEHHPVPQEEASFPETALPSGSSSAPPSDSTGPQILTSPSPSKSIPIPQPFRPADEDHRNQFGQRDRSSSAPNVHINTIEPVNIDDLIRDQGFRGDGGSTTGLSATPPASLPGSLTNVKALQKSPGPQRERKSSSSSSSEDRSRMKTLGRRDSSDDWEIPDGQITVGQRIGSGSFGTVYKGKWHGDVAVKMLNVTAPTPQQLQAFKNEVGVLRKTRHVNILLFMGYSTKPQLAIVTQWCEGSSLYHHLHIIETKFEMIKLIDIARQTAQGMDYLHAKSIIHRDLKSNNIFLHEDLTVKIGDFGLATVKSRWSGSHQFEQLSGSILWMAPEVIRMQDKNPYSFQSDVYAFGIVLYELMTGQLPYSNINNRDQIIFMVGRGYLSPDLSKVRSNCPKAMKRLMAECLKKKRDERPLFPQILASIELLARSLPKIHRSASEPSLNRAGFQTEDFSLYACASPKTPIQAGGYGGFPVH
# Experiment: Inhibition of mouse full-length GST-tagged BRAF V600E mutant using recombinant human full length N-terminal His-tagged MEK1 as substrate preincubated for 60 mins followed by substrate addition and measured after 25 mins by ELISA
# Details: not given
row,IC50,SMILES
1,0.9 µM,CCc1c2cc(C(F)(F)F)ccc2n2cc(Cc3ccccc3)[nH]c(=O)c12

# System: not listed separately
# Experiment: Inhibition of ROS generation in human PMN at 3.13 ug/ml after 50 mins by luminol-based chemiluminescence assay relative to control
# Format: functional
# Details: not given
row,SMILES,inhibition at 3.13 µg/mL
1,O=C(NC(CO)Cc1ccccc1)c1cc2ccccc2[nH]1 (configuration not stated),32%
2,CCc1c(C(=O)NC(CO)Cc2ccc(Cl)cc2)[nH]c2ccc(Cl)cc12 (configuration not stated),43%
3,CCc1c2cc(Cl)ccc2n2cc(Cc3ccccc3)[nH]c(=O)c12,37%
4,CCc1c2cc(C(F)(F)F)ccc2n2cc(Cc3ccccc3)[nH]c(=O)c12,56%

# System: not listed separately
# Experiment: Inhibition of ROS generation in human PMN at 6.25 ug/ml after 50 mins by luminol-based chemiluminescence assay relative to control
# Format: functional
# Details: not given
row,SMILES,inhibition at 6.25 µg/mL
1,O=C(NC(CO)Cc1ccccc1)c1cc2ccccc2[nH]1 (configuration not stated),47%
2,CCc1c(C(=O)NC(CO)Cc2ccc(Cl)cc2)[nH]c2ccc(Cl)cc12 (configuration not stated),58%
3,CCc1c2cc(Cl)ccc2n2cc(Cc3ccccc3)[nH]c(=O)c12,60%
4,CCc1c2cc(C(F)(F)F)ccc2n2cc(Cc3ccccc3)[nH]c(=O)c12,72%

# System: not listed separately
# Experiment: Inhibition of ROS generation in human PMN at 12.5 ug/ml after 50 mins by luminol-based chemiluminescence assay relative to control
# Format: functional
# Details: not given
row,SMILES,inhibition at 12.5 µg/mL
1,O=C(NC(CO)Cc1ccccc1)c1cc2ccccc2[nH]1 (configuration not stated),64%
2,CCc1c(C(=O)NC(CO)Cc2ccc(Cl)cc2)[nH]c2ccc(Cl)cc12 (configuration not stated),74%
3,CCc1c2cc(Cl)ccc2n2cc(Cc3ccccc3)[nH]c(=O)c12,72%
4,CCc1c2cc(C(F)(F)F)ccc2n2cc(Cc3ccccc3)[nH]c(=O)c12,89%

# System: not listed separately
# Experiment: (§1) Inhibition of ROS generation in human PMN after 50 mins by luminol-based chemiluminescence assay
# Format: functional
# Details: not given
row,IC50,SMILES
1,23.1 µM,O=C(NC(CO)Cc1ccccc1)c1cc2ccccc2[nH]1 (configuration not stated)
2,11.8 µM,CCc1c(C(=O)NC(CO)Cc2ccc(Cl)cc2)[nH]c2ccc(Cl)cc12 (configuration not stated)
3,13.8 µM,CCc1c2cc(Cl)ccc2n2cc(Cc3ccccc3)[nH]c(=O)c12
4,6.53 µM,CCc1c2cc(C(F)(F)F)ccc2n2cc(Cc3ccccc3)[nH]c(=O)c12

# Species on record: Homo sapiens
# Experiment: as §1
# Format: functional
# Details: not given
row,SMILES,inhibition
1,O=C(NC(CO)Cc1ccccc1)c1cc2ccccc2[nH]1 (configuration not stated),Dose-dependent effect
2,CCc1c(C(=O)NC(CO)Cc2ccc(Cl)cc2)[nH]c2ccc(Cl)cc12 (configuration not stated),Dose-dependent effect
3,CCc1c2cc(Cl)ccc2n2cc(Cc3ccccc3)[nH]c(=O)c12,Dose-dependent effect
4,CCc1c2cc(C(F)(F)F)ccc2n2cc(Cc3ccccc3)[nH]c(=O)c12,Dose-dependent effect

# System: not listed separately
# Experiment: Antioxidant activity assessed as DPPH radical scavenging activity at 100 uM after 30 mins dark incubation
# Format: functional
# Details: not given
row,SMILES,Activity
1,O=C(NC(CO)Cc1ccccc1)c1cc2ccccc2[nH]1 (configuration not stated),64.6%
2,CCc1c(C(=O)NC(CO)Cc2ccc(Cl)cc2)[nH]c2ccc(Cl)cc12 (configuration not stated),79.9%
3,CCc1c2cc(Cl)ccc2n2cc(Cc3ccccc3)[nH]c(=O)c12,71.6%
4,CCc1c2cc(C(F)(F)F)ccc2n2cc(Cc3ccccc3)[nH]c(=O)c12,84.4%

# System: not listed separately
# Experiment: Antioxidant activity assessed as DPPH radical scavenging activity at 50 uM after 30 mins dark incubation
# Format: functional
# Details: not given
row,SMILES,Activity
1,O=C(NC(CO)Cc1ccccc1)c1cc2ccccc2[nH]1 (configuration not stated),50.1%
2,CCc1c(C(=O)NC(CO)Cc2ccc(Cl)cc2)[nH]c2ccc(Cl)cc12 (configuration not stated),59.3%
3,CCc1c2cc(Cl)ccc2n2cc(Cc3ccccc3)[nH]c(=O)c12,59%
4,CCc1c2cc(C(F)(F)F)ccc2n2cc(Cc3ccccc3)[nH]c(=O)c12,72.9%

# System: not listed separately
# Experiment: Antioxidant activity assessed as DPPH radical scavenging activity at 10 uM after 30 mins dark incubation
# Format: functional
# Details: not given
row,SMILES,Activity
1,O=C(NC(CO)Cc1ccccc1)c1cc2ccccc2[nH]1 (configuration not stated),24.8%
2,CCc1c(C(=O)NC(CO)Cc2ccc(Cl)cc2)[nH]c2ccc(Cl)cc12 (configuration not stated),41.4%
3,CCc1c2cc(Cl)ccc2n2cc(Cc3ccccc3)[nH]c(=O)c12,40.8%
4,CCc1c2cc(C(F)(F)F)ccc2n2cc(Cc3ccccc3)[nH]c(=O)c12,52.2%
